Experimental data from publication PMC11476419, “Analysis of Punicalin and Punicalagin Interaction with PDIA3 and PDIA1” (International Journal of Molecular Sciences, 2024).

Columns and labels:
PDIA1 [1] = biological target: T1, PDIA1 (Homo sapiens, UniProt P07237); test: Insulin turbidity assay, disulfide reductase activity; assay type: biochemical; conditions: insulin substrate, PDIA1 800 nM, reducing conditions
T1 construct: The mature human PDIA1 with an N-terminal His6x-tag was expressed and purified; His6 (N); made in house
Method: (§1) To further evaluate the inhibitory effect of punicalin and punicalagin on the enzymatic activity of the two proteins, we performed a different assay using insulin, a physiologically more appropriate substrate. The results obtained are reported in Figure 4 and show again a lesser inhibitory effect of punicalin compared to punicalagin, as observed with the glutathione-based assay.
PDI disulfide reductase activity was assayed by measuring the reduction of insulin catalyzed by PDIs with DTT. A 50 μM stock solution of each PDI was reduced using TCEP (5 mM final concentration) for 90 min at room temperature. […] After incubation, an equal volume of the 2× reaction mixture (consisting of DTT 50 μM and human insulin 0.32 mM) was added. Protein activity was evaluated by monitoring the increase in turbidity of the solutions at 600 nm.
(§2) In both assays, the inhibition constants were extrapolated by GraphPad Prism 8.0 software (GraphPad Software, San Diego, CA, USA), plotting the obtained data as logarithm dose–response curves.

PDIA3 [2] = biological target: T2, PDIA3 (Homo sapiens, UniProt P30101); test: as above; assay type: biochemical; conditions: insulin substrate, PDIA3 1600 nM, reducing conditions
T2 construct: The mature recombinant form (devoid of the N-terminal presence) of the human PDIA3 protein was expressed and purified; made in house
T2 sequence (P30101 25-505): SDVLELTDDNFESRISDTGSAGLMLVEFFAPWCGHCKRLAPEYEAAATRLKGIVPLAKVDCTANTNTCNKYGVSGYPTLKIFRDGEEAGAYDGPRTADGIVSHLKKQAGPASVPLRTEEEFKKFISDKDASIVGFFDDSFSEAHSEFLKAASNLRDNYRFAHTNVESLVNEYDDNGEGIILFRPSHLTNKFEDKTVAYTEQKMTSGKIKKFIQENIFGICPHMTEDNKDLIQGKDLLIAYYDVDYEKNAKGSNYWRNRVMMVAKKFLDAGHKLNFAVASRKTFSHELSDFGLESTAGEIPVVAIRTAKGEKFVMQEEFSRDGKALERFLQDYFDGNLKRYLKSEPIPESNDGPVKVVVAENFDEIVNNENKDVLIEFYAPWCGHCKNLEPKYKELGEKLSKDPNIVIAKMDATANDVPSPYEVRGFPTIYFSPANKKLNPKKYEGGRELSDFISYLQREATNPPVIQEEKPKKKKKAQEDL
Method: as §1
PDI disulfide reductase activity was assayed by measuring the reduction of insulin catalyzed by PDIs with DTT. A 50 μM stock solution of each PDI was reduced using TCEP (5 mM final concentration) for 90 min at room temperature. Aliquots of the stock solution were diluted in the incubation mixture (PDIA1 1.6 µM and PDIA3 3.2 µM) containing sodium phosphate buffer (100 mM sodium phosphate, 2 mM EDTA, pH 7.0) added with punicalin/punicalagin (concentration ranging from 0 to 50 µM) and incubated at 37 °C for 1 h. After incubation, an equal volume of the 2× reaction mixture (consisting of DTT 50 μM and human insulin 0.32 mM) was added. Protein activity was evaluated by monitoring the increase in turbidity of the solutions at 600 nm.
as §2

PDIA1 [3] = biological target: T1, PDIA1; test: Differential scanning fluorimetry (protein thermal shift); assay type: binding; conditions: PDIA1, compound 20 µM
Method: (§3) The effect of punicalin and punicalagin on the stability of both proteins was evaluated by differential scanning fluorimetry (DSF). Initially, PDIA1 and PDIA3 were incubated at 25 °C for 20 min with both substances at 5 µM and 20 µM concentrations. […] The reading was optimized at intervals of 0.2 °C every 5 s. Once the fluorescence profile was obtained, the data were analyzed with the GraphPad prism program, by either fitting data with a Boltzmann equation or calculating the first derivative. In DSF analyses, a gradual increase in fluorescence is observed, due to a conformational change in the protein, which reaches a maximum value and then decreases because of protein precipitation.
(§4) To evaluate Tm, we focused the attention on the main transition, and thus we fitted, with a Boltzmann equation, the data in the range of 25–55 °C for PDIA3 and in the range of 45–70 °C for PDIA1. Again, the two substances show a destabilizing effect, which was more evident for PDIA3 than for PDIA1. In fact, punicalagin and punicalin at a 20 µM concentration cause a shift of Tm of at least 6 °C in the case of PDIA3, while this is approximately 3 °C for PDIA1 (Figure 7).
(§5) Protein stability in the absence and presence of punicalagin/punicalin was tested by means of the fluorescence-based thermal stability assay or differential scanning fluorimetry (DSF) developed by Pantoliano and coworkers. DSF records the fluorescence emission signal from the binding of a dye (SYPRO orange) to the exposed hydrophobic patches upon protein unfolding. Fluorescence measurements were performed using a CFX96 Connect RT-PCR instrument (BioRad, Hercules, CA, USA). Aliquots of 18 μL of protein solution (2 μM), freshly diluted in Tris Buffered saline (50 mM TrisHCl, pH 8.0, 150 mM NaCl) containing 0.1 mM DTT, 0.2 mM EDTA, and 1: 1000 dilution of SYPRO Orange (50 mM stock solution in DMSO), were distributed in a 96-well plate. Sample wells were added with punicalagin or punicalin at a final concentration of 5 uM or 20 μM by adding 2 μL of a 10-fold concentrated freshly prepared stock solution. As control, the protein solution was added with 2 μL of the dilution buffer. A melting point analysis was recorded by increasing the temperature from 25 to 70 °C with an increment of 0.2 °C every 5 s and reading, at each temperature, the fluorescence in fluorescence resonance energy transfer mode (FRET). Each measure was the average of three sample well readings, and each DSF experiment was repeated at least three times. To calculate Tm values, DSF data from the melting curve were exported and fitted to a Boltzmann equation using GraphPad software. The effect of punicalagin and punicalin was evaluated comparing the Tm values in the presence and absence of each molecule.

PDIA3 [4] = biological target: T2, PDIA3; test: as above; assay type: binding
Method: as §3, §4, §5

PDIA1 [5] = biological target: T1, PDIA1; parameters: method as in Paglia et al. [40]; conditions: reduced PDIA1; ref Paglia et al. [40]; cited from earlier work
PDIA3 [6] = biological target: T2, PDIA3; parameters: method as in Paglia et al. [40]; conditions: reduced PDIA3; ref Paglia et al. [40]; cited from earlier work
PDIA3 [7] = test system: PDIA3; parameters: method as in PMID 37686085; conditions: 30 µM, 24 h after treatment; ref [34]; cited from earlier work

T1 sequence (P07237 18-508): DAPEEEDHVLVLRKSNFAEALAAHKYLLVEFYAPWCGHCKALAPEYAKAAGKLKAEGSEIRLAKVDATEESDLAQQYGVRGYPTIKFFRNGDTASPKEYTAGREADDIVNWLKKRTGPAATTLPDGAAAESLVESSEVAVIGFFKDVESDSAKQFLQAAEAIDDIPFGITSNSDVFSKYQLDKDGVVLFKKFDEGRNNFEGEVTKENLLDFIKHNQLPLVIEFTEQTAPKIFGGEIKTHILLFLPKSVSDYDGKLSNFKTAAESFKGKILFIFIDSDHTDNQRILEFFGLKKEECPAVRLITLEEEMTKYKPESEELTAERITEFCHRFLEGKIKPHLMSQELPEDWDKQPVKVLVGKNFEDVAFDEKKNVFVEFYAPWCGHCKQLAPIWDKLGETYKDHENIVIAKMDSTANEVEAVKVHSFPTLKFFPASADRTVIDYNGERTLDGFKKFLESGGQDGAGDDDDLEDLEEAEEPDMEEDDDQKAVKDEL

O=C1O[C@H]2[C@@H]3OC(=O)c4cc(O)c(O)c(O)c4-c4c(O)c(O)c5oc(=O)c6c(c(O)c(O)c7oc(=O)c4c5c76)-c4c(cc(O)c(O)c4O)C(=O)OC[C@H]3OC(O)[C@@H]2OC(=O)c2cc(O)c(O)c(O)c2-c2c1cc(O)c(O)c2O (mixture of isomers) [Punicalagin, punicalagin]
IC50 (PDIA1 [1]): 13.7 µM | IC50 (PDIA3 [2]): 8.8 µM | shift towards lower temperature of second main transition (first-derivative graph) (PDIA1 [3]): about 5 °C | shift of Tm (destabilizing, Boltzmann fit) (PDIA1 [3]; fit range 45–70 °C): approximately 3 °C | left shift of first transition (first-derivative graph) (PDIA3 [4]; PDIA3, compound 20 µM): about 3 °C | shift towards lower temperature of second transition (first-derivative graph) (PDIA3 [4]; PDIA3, compound 20 µM): more than 10 °C | shift of Tm (destabilizing, Boltzmann fit) (PDIA3 [4]; PDIA3, compound 20 µM, fit range 25–55 °C): at least 6 °C | Tm of PDIA3 after addition of compound (PDIA3 [4]; PDIA3 alone Tm 46 °C): below 40 °C | Stern–Volmer constant (KSV) (PDIA1 [5]): 97.9 ± 2.1 M^−1 × 10^3 | Stern–Volmer constant (KSV) (PDIA3 [6]): 157.1 ± 1.9 M^−1 × 10^3 | formation of PDIA3 protein aggregates (PDIA3 [7]): induced the formation of protein aggregates
